Measured values reported in patent US9983218B2, “Indole and indoline derivatives and methods of use thereof” (AbbVie Inc., priority 2008, dated 2018).

Experiments:
[1] = system: mouse model of multiple sclerosis; settings: in vivo administration; cited from earlier work
PC12 cells = assay: Number of neuron-like cells in nerve growth factor-differentiated PC12 cells (HCS microscopy); type: cell-based; settings: NGF-differentiated PC12 cells, 24 hours post-treatment, normalized to 10 μM dimebolin; FIG. 1
Method: For example, studies were conducted using PC12 cells plated in 96-well plates, treated with or without nerve growth factor (100 ng/mL) for 6 days. Compounds were then added at various concentrations (ranging from 0.1 nM to 30 μM), and incubated for 24 hours. Cells were then fixed and stained by neuron marker β-tubulin (green), and nuclei were stained by Hoechst 33342 (blue). Images were collected using the ImageXpress Micro automatic fluorescent microscopy system (Molecular Devices, Sunnyvale, Calif.) employing a Nikon 10× Plan Fluor objective and Cool Snap HQ CCD camera. The Neurite Outgrowth module in the MetaMorph Imaging software was used to automatically count neuron-like number, and the extent of neurite outgrowth (See, FIG. 1).

Row | SMILES | development of the disease [1] | number of neuron-like cells (PC12 cells)
1 | O=C1C=C(c2ccccc2)C(=O)N1c1cccc(Cl)c1 [1-(3-chlorophenyl)-3-phenyl-pyrrole-2,5-dione] | significantly prevented the development of the disease | 
2 | Cc1ccc2c(c1)c1c(n2CCc2ccc(C)nc2)CC2CCC1N2C (centres unmarked) [Example 1, 2,11-dimethyl-5-[2-(6-methylpyridin-3-yl)ethyl]-5,6,7,8,9,10-hexahydro-7,10-epiminocyclohepta[b]indole] |  | concentration-dependent effects
